The values that follow come from patent US20260092071A1, “COMPOUNDS AND COMPOSITIONS AS SMARCA2/4 DEGRADERS AND USES THEREOF” (REGENTS OF THE UNIVERSITY OF MICHIGAN, priority 2022, published 2026).

Assay [1] concerns the target SMARCA2 (Homo sapiens, UniProt P51531). Nature of the assay: HiBiT assay for protein degradation, Hela SMARCA2-HiBiT cells (A series).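 On SMARC A2 Hela HiBit Dmax (%): 24 h compound treatment.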 Type of assay: cell-based. The arrangement: Hela cells were genetically modified via CRISPR/Cas9 to fuse HiBiT to the carboxy terminus of SMARCA2; host or cells: HeLa (CRISPR/Cas9 HiBiT knock-in). The note with it: Hela SMARCA2-HiBiT cells, 24 hours treatment; for DC50: read-out: SMARC A2 Hela HiBit DC50; for Dmax: read-out: SMARC A2 Hela HiBit Dmax (%). In a few lines: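 SMARCA2 degradation was measured in HeLa cells whose endogenous SMARCA2 carries a carboxy-terminal HiBiT tag introduced by CRISPR/Cas9 (Promega CS302365). Cells were maintained in DMEM with FBS and penicillin-streptomycin. SMARCA2 levels were read at the end of the experiment by Nano-Glo® HiBiT lytic luminescence (Promega N3050) and analyzed in GraphPad Prism.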
(The HiBiT peptide binds its large partner to form an active luciferase.)

Assay [2] addresses SMARCA4 (Homo sapiens, UniProt P51532). Put plainly: HiBiT assay for protein degradation, Hela SMARCA4-HiBiT cells (A series). Type of assay: cell-based. Set-up: fuse HiBiT to the carboxy terminus of SMARCA2 (Promega CS302365) or SMARCA4 (Promega CS3023225); host or cells: HeLa (CRISPR/Cas9 HiBiT knock-in). The note with it: Hela SMARCA4-HiBiT cells, 24 hours treatment; for DC50: read-out: SMARC A4 Hela HiBit DC50. The essentials: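 SMARCA4 degradation was measured in HeLa cells in which HiBiT had been knocked into the SMARCA4 carboxy terminus via CRISPR/Cas9 (Promega CS3023225). Cells were maintained in DMEM with FBS and penicillin-streptomycin. At the end of treatment, SMARCA4 levels were read by lytic HiBiT luminescence (Nano-Glo®, Promega N3050), and data were analyzed with GraphPad Prism.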

Where [3] appears, read: read-out: SMARC A4 Hela HiBit Dmax.

Read-outs that look alike come from different tables or passages of the source.

SMARCA2, sequence (P51531 whole entry): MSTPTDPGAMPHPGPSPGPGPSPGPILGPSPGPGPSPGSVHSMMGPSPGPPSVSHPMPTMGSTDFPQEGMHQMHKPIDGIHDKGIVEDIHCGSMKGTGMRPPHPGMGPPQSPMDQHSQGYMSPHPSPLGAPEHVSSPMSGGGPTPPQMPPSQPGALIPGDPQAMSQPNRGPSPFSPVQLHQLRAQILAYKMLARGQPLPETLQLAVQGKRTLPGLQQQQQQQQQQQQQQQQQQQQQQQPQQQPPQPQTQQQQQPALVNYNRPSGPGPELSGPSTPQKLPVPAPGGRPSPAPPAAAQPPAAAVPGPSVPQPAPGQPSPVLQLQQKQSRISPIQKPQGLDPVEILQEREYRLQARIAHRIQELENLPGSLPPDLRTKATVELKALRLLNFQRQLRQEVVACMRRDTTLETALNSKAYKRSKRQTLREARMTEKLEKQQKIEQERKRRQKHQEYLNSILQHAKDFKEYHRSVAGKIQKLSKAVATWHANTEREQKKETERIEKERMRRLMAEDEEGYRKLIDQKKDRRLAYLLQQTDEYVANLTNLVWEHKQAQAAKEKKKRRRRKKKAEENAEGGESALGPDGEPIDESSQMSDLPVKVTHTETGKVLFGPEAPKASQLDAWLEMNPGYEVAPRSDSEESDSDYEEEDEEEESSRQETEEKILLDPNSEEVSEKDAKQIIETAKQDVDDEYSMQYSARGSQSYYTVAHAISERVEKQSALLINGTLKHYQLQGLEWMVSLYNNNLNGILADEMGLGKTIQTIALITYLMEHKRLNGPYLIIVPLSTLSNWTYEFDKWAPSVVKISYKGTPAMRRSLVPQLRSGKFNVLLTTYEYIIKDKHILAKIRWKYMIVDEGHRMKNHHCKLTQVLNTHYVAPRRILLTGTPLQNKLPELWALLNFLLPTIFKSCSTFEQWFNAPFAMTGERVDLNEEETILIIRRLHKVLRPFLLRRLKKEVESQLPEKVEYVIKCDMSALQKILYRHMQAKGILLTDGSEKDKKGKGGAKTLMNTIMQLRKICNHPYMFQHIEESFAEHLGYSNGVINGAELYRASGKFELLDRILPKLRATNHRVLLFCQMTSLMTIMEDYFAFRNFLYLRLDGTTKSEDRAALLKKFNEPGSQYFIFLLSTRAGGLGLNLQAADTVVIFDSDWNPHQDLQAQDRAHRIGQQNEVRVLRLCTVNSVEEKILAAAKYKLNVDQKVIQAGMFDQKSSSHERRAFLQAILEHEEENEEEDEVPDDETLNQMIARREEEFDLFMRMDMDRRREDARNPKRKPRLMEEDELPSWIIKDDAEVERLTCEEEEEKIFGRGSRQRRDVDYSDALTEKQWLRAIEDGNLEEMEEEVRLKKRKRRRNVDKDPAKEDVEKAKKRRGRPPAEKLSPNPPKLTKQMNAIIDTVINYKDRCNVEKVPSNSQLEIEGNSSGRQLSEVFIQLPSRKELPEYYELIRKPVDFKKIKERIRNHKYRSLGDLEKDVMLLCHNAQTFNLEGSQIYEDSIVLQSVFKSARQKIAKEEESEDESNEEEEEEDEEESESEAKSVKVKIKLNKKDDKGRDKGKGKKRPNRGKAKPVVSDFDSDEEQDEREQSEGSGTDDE
SMARCA4, sequence (P51532 whole entry): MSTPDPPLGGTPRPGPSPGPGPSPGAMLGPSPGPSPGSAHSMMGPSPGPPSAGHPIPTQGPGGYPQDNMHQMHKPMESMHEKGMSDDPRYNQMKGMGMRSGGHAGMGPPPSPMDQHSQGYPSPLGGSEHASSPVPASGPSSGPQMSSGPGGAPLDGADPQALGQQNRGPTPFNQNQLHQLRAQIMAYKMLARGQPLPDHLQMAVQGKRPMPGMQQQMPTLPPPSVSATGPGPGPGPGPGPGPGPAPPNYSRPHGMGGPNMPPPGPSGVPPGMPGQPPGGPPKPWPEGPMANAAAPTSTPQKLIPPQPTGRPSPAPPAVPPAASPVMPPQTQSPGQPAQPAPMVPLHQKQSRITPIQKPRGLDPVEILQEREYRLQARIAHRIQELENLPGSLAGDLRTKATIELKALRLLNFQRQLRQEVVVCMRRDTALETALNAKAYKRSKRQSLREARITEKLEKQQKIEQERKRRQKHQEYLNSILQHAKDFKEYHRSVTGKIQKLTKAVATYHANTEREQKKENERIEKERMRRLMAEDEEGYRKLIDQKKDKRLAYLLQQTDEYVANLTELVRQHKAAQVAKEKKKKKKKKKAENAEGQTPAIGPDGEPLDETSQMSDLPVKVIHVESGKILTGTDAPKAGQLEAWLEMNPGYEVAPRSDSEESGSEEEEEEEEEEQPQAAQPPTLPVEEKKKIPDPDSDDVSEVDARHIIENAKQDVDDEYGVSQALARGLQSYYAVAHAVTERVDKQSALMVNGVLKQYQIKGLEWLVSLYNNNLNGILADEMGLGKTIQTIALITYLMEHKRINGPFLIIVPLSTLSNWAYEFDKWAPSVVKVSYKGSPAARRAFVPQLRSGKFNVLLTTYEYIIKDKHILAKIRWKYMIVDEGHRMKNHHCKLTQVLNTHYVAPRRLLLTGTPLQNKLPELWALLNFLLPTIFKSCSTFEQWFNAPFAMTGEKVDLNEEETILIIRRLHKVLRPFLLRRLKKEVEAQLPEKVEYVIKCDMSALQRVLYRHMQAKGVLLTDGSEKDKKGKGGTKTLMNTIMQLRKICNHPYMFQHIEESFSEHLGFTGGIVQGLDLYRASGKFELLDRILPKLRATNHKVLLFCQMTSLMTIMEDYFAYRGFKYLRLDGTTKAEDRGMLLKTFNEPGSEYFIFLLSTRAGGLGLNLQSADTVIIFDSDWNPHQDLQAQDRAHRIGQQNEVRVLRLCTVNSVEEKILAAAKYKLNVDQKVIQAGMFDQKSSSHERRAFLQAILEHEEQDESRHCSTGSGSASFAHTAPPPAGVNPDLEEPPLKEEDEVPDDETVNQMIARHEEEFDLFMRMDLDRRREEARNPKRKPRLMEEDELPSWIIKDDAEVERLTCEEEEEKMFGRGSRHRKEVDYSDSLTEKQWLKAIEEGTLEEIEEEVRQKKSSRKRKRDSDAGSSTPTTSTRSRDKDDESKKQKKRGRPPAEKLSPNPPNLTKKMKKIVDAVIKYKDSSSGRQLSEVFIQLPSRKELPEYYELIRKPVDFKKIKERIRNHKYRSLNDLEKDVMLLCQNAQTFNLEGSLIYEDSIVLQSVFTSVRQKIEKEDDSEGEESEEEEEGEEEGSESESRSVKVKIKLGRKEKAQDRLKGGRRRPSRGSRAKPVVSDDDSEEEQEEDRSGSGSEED

Turning to `Cc1ncsc1-c1ccc([C@H](CC(=O)N2CCC(N3CCC(c4ccc5c(c4)-n4c(nc(=O)c6c(Cl)cccc64)C54CCCCC4)CC3)CC2)NC(=O)[C@@H]2C[C@@H](O)CN2C(=O)[C@@H](n2cc(C3CC3)nn2)C(C)(C)C)cc1` [Compound A143, (2S,4R)—N—((S)-3-(4-(4′-chloro-5′-oxo-5′H-spiro[cyclohexane-1,7′-indolo[1,2-a]quinazolin]-10′-yl)-[1,4′-bipiperidin]-1′-yl)-1-(4-(4-methylthiazol-5-yl)phenyl)-3-oxopropyl)-1-((S)-2-(4-cyclopropyl-1H-1,2,3-triazol-1-yl)-3,3-dimethylbutanoyl)-4-hydroxypyrrolidine-2-carboxamide], the DC50 (as a rule, the concentration giving 50% degradation) in assay [1] is 10 to 100 nM; in assay [2], 100 to 1000 nM. The Dmax (in general, the largest share of the target that was removed) in assay [1] lay within 70 to 90%; in assay [2] (setting [3]) it was 50 to 69%.
`Cc1ccccc1-c1ccc([C@H](CN2CCOCC2)NC(=O)[C@@H]2C[C@@H](O)CN2C(=O)[C@@H](n2cc([C@H]3CC[C@H](CN4CCC(c5ccc6c(c5)-n5c(nc(=O)c7c(Cl)cccc75)C65CCCCC5)CC4)CC3)nn2)C(C)(C)C)cc1` [Compound A163, (2S,4R)-1-((S)-2-(4-((1r,4S)-4-((4-(4′-chloro-5′-oxo-5′H-spiro[cyclohexane-1,7′-indolo[1,2-a]quinazolin]-10′-yl)piperidin-1-yl)methyl)cyclohexyl)-1H-1,2,3-triazol-1-yl)-3,3-dimethylbutanoyl)-4-hydroxy-N—((R)-1-(2′-methyl-[1,1′-biphenyl]-4-yl)-2-morpholinoethyl)pyrrolidine-2-carboxamide]: the half-maximal degradation concentration (DC50) in assay [1] was less than 10 nM; in assay [2], 100 to 1000 nM. Besides, the results for the maximal degradation (Dmax) in assay [1] and in assay [2] (setting [3]) were more than 90% and 50 to 69%, respectively.
`Cc1ncsc1-c1ccc([C@H](C)NC(=O)[C@@H]2C[C@@H](O)CN2C(=O)[C@@H](n2cc([C@H]3CC[C@H](CN4CCC(c5ccc6c(c5)-n5c(nc(=O)c7c(Br)cccc75)C65CCCCC5)CC4)CC3)nn2)C(C)(C)C)cc1` [Compound A49, (2S,4R)-1-((S)-2-(4-((1r,4S)-4-((4-(4′-bromo-5′-oxo-5′H-spiro[cyclohexane-1,7′-indolo[1,2-a]quinazolin]-10′-yl)piperidin-1-yl)methyl)cyclohexyl)-1H-1,2,3-triazol-1-yl)-3,3-dimethylbutanoyl)-4-hydroxy-N—((S)-1-(4-(4-methylthiazol-5-yl)phenyl)ethyl)pyrrolidine-2-carboxamide]: in assay [1], the “SMARC A2 Hela HiBit Dmax (%)” value is reported as “A (A (>90% degradation))” and the DC50 is less than 100 nM. In assay [2], the “SMARC A4 Hela HiBit Dmax(%)” value is given as “B (B (70-90% degradation))” and the DC50 is 100 to 500 nM.
For the molecule `Cc1ncsc1-c1ccc([C@H](CC(=O)N2CCC(CN3CCC(c4ccc5c(c4)-n4c(nc(=O)c6c(Br)cccc64)C54CCCCC4)CC3)CC2)NC(=O)[C@@H]2C[C@@H](O)CN2C(=O)[C@@H](n2cc(C3CC3)nn2)C(C)(C)C)cc1` [Compound A141, (2S,4R)—N—((S)-3-(4-((4-(4′-bromo-5′-oxo-5′H-spiro[cyclohexane-1,7′-indolo[1,2-a]quinazolin]-10′-yl)piperidin-1-yl)methyl)piperidin-1-yl)-1-(4-(4-methylthiazol-5-yl)phenyl)-3-oxopropyl)-1-((S)-2-(4-cyclopropyl-1H-1,2,3-triazol-1-yl)-3,3-dimethylbutanoyl)-4-hydroxypyrrolidine-2-carboxamide], the DC50 in assay [1] and in assay [2] was less than 10 nM each time. For the same molecule, the Dmax in assay [1] and in assay [2] (setting [3]) was more than 90% each time.
On to `Cc1ncsc1-c1ccc([C@H](CN2CCOCC2)NC(=O)[C@@H]2C[C@@H](O)CN2C(=O)[C@@H](n2cc([C@H]3CC[C@H](CN4CCC(c5ccc6c(c5)-n5c(nc(=O)c7c(Cl)cccc75)C6(C)C)CC4)CC3)nn2)C(C)(C)O)cc1` [Compound A159, (2S,4R)-1-((S)-2-(4-((1r,4S)-4-((4-(4-chloro-7,7-dimethyl-5-oxo-5,7-dihydroindolo[1,2-a]quinazolin-10-yl)piperidin-1-yl)methyl)cyclohexyl)-1H-1,2,3-triazol-1-yl)-3-hydroxy-3-methylbutanoyl)-4-hydroxy-N-((R)-1-(4-(4-methylthiazol-5-yl)phenyl)-2-morpholinoethyl)pyrrolidine-2-carboxamide], for which the DC50 was less than 10 nM in assay [1] and more than 1000 nM in assay [2]. Besides, the Dmax is more than 90% in assay [1] and 50 to 69% in assay [2] (setting [3]).
Turning to `Cc1ncsc1-c1ccc([C@H](CC(=O)O)NC(=O)[C@@H]2C[C@@H](O)CN2C(=O)[C@@H](n2cc([C@H]3CC[C@H](CN4CCC(c5ccc6c(c5)-n5c(nc(=O)c7c(Cl)cccc75)C65CCCCC5)CC4)CC3)nn2)C(C)(C)C)cc1` [Compound A146, (S)-3-((2S,4R)-1-((S)-2-(4-((1r,4S)-4-((4-(4′-chloro-5′-oxo-5′H-spiro[cyclohexane-1,7′-indolo[1,2-a]quinazolin]-10′-yl)piperidin-1-yl)methyl)cyclohexyl)-1H-1,2,3-triazol-1-yl)-3,3-dimethylbutanoyl)-4-hydroxypyrrolidine-2-carboxamido)-3-(4-(4-methylthiazol-5-yl)phenyl) propanoic acid], the 50% degradation concentration (DC50) in assay [1] is 10 to 100 nM; in assay [2], more than 1000 nM. Further, the Dmax in assay [1] is 70 to 90%; in assay [2] (setting [3]), less than 50%.
`Cc1ncsc1-c1ccc([C@H](C)NC(=O)[C@@H]2C[C@@H](O)CN2C(=O)[C@H](C2CCOCC2)n2cc([C@H]3CC[C@H](CN4CCC(c5ccc6c(c5)-n5c(nc(=O)c7c(Cl)cccc75)C65CCCCC5)CC4)CC3)nn2)cc1` [Compound A120, (2S,4R)-1-((S)-2-(4-((1r,4S)-4-((4-(4′-chloro-5′-oxo-5′H-spiro[cyclohexane-1,7′-indolo[1,2-a]quinazolin]-10′-yl)piperidin-1-yl)methyl)cyclohexyl)-1H-1,2,3-triazol-1-yl)-2-(tetrahydro-2H-pyran-4-yl)acetyl)-4-hydroxy-N—((S)-1-(4-(4-methylthiazol-5-yl)phenyl)ethyl)pyrrolidine-2-carboxamide]: in assay [1], the 50% degradation concentration (DC50) is less than 10 nM and the greatest degradation seen (Dmax) was more than 90%. Further, the “SMARC A4 Hela HiBit DC50(nM)” value in assay [2] is on record as “No fit”. The Dmax in assay [2] (setting [3]) lay within 50 to 69%.
Consider `Cc1ncsc1-c1ccc([C@@H](C)NC(=O)[C@@H]2C[C@@H](O)CN2C(=O)C(c2cc(N3CCC(CN4CCC(c5ccc6c(c5)C5(CCCCC5)c5nc(=O)c7c(Br)cccc7n5-6)CC4)CC3)no2)C(C)C)cc1` (stereo partly drawn) [Compound A59, (2S,4R)-1-(2-(3-(4-((4-(4′-bromo-5′-oxo-5′H-spiro[cyclohexane-1,7′-indolo[1,2-a]quinazolin]-9′-yl)piperidin-1-yl)methyl)piperidin-1-yl)isoxazol-5-yl)-3-methylbutanoyl)-4-hydroxy-N—((R)-1-(4-(4-methylthiazol-5-yl)phenyl)ethyl)pyrrolidine-2-carboxamide], for which the half-maximal degradation concentration (DC50) in assay [1] is less than 100 nM; in assay [2] it was more than 1000 nM. Besides, the greatest degradation seen (Dmax) was 70 to 90% in assay [1] and less than 50% in assay [2] (read-out: SMARC A4 Hela HiBit Dmax(%)).
Regarding `Cc1ncsc1-c1ccc([C@H](CN2CCOCC2)NC(=O)[C@@H]2C[C@@H](O)CN2C(=O)[C@H](C2CCOCC2)n2cc([C@H]3CC[C@H](CN4CCC(c5ccc6c(c5)-n5c(nc(=O)c7c(Cl)cccc75)C65CCCCC5)CC4)CC3)nn2)cc1` [Compound A100, (2S,4R)-1-((S)-2-(4-((1r,4S)-4-((4-(4′-chloro-5′-oxo-5′H-spiro[cyclohexane-1,7′-indolo[1,2-a]quinazolin]-10′-yl)piperidin-1-yl)methyl)cyclohexyl)-1H-1,2,3-triazol-1-yl)-2-(tetrahydro-2H-pyran-4-yl)acetyl)-4-hydroxy-N—((R)-1-(4-(4-methylthiazol-5-yl)phenyl)-2-morpholinoethyl)pyrrolidine-2-carboxamide], the DC50 is less than 10 nM in assay [1] and more than 1000 nM in assay [2]. In addition, the Dmax in assay [1] was more than 90%; in assay [2] (setting [3]) it was 50 to 69%.
Regarding `COCCOC[C@H](NC(=O)[C@@H]1C[C@@H](O)CN1C(=O)[C@@H](n1cc([C@H]2CC[C@H](CN3CCC(c4ccc5c(c4)-n4c(nc(=O)c6c(Cl)cccc64)C5(C)C)CC3)CC2)nn1)C(C)(C)C)c1ccc(-c2scnc2C)cc1` [Compound A91, (2S,4R)-1-((S)-2-(4-((1r,4S)-4-((4-(4-chloro-7,7-dimethyl-5-oxo-5,7-dihydroindolo[1,2-a]quinazolin-10-yl)piperidin-1-yl)methyl)cyclohexyl)-1H-1,2,3-triazol-1-yl)-3,3-dimethylbutanoyl)-4-hydroxy-N-(®-2-(2-methoxyethoxy)-1-(4-(4-methylthiazol-5-yl)phenyl)ethyl)pyrrolidine-2-carboxamide], the DC50 was less than 10 nM in assay [1] and more than 1000 nM in assay [2]. The results for the Dmax in assay [1] and in assay [2] (setting [3]) were more than 90% and less than 50%, respectively.
